Reference: the SangsterLogP compilation

Tests used:
[1] = method code SF, from DOI: 10.1002/qsar.19890080404

Row | logP [1] | logP | Structure (SMILES)
1 | 1.13 | – | N#Cc1ccc[nH]1
2 | – | 1.56 | O=[N+]([O-])C=Cc1ccco1
3 | – | 1.96 | O=[N+]([O-])/C=C/c1cccs1
4 | – | 3.18 | CCOC(=O)c1cc2ccccc2[nH]1
5 | – | 1.44 | COc1ccco1
6 | – | 0.51 | O=Cc1ccoc1
7 | 0.64 | – | O=Cc1ccc[nH]1
8 | – | 2.18 | Brc1ccoc1
9 | – | 3.44 | O=C(c1c[nH]c2ccccc12)C(F)(F)F
10 | – | 1.35 | CC(=O)C=Cc1ccco1
11 | – | 0.87 | NC(=O)c1ccc2[nH]ccc2c1
12 | – | 1.07 | O=CNc1ccc2[nH]ccc2c1
13 | 1.22 | – | CC(=O)Nc1ccc2[nH]c(C)cc2c1
14 | – | 2.38 | N#Cc1ccc2cc[nH]c2c1
15 | 1.69 | – | O=Cc1c[nH]c2ccccc12
16 | – | 2.01 | CC(=O)Oc1c[nH]c2ccccc12
17 | – | 0.37 | NCc1ccco1
18 | – | 1.78 | CCOC(=O)c1ccoc1

Row | logP [1] | logP | Structure (SMILES)
19 | 2.06 | – | CC(=O)c1c[nH]c2ccccc12
20 | – | 2.53 | CCOc1ccc2cc[nH]c2c1
21 | – | 0.66 | NC(=O)c1cccc2[nH]ccc12
22 | – | 3.25 | Clc1cccc2cc[nH]c12
23 | – | 2.58 | COC(=O)c1ccc2[nH]ccc2c1
24 | 0.38 | – | CS(=O)(=O)c1cccs1
25 | – | 0.41 | CN(C)C(=O)c1ccco1
26 | – | 3.04 | CCOC(=O)c1c[nH]c2ccccc12
27 | 1.99 | – | O=C(O)c1c[nH]c2ccccc12
28 | – | 2.46 | N#Cc1cccc2[nH]ccc12
29 | – | 2.56 | Cc1cccc2cc[nH]c12
30 | – | 2.92 | O=[N+]([O-])c1ccc2sccc2c1
31 | – | 2.54 | Clc1cccs1
32 | 2.05 | – | CCOC(=O)c1c[nH]cc1C
33 | 1.34 | – | NC(=S)c1cccs1
34 | – | 2.36 | N#Cc1ccc2[nH]ccc2c1
35 | – | 2.63 | O=[N+]([O-])c1cccc2cc[nH]c12
